Assay results from patent US9681664B2, “Macrocyclic picolinamides as fungicides” (Dow Agrosciences LLC, priority 2012, dated 2017).
Like-named read-outs stand apart in the source and are kept apart here.

Assays:
Type in all cases: in vivo
[1] = tested on: Phakopsora pachyrhizi; assay: Asian soybean rust (PHAKPA) disease control; conditions: topical, high volume
Procedure, shortened: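 Compounds in acetone diluted with nine volumes water containing 0.011% Tween 20, sprayed to run-off on two-week-old Williams 82 soybean seedlings, inoculated 3 days before or 1 day after treatment. Plants held 24 h in dark dew room at 22 °C, 100% RH, then at 23 °C; disease severity scored on sprayed leaves.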

[2] = tested on: Glomerella lagenarium; Anamorph: Colletotrichum lagenarium; assay: Cucumber anthracnose (COLLLA) disease control; conditions: Colletotrichum orbiculare, 24 h, 1 Day Protectant, high volume, read-out: Disease Control COLLLA 1 DP
Procedure, shortened: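 Compounds were dissolved in acetone, diluted with nine volumes of water containing 110 ppm Triton X-100 and sprayed to run-off on 12–14-day-old Bush Pickle cucumber seedlings. Plants were spore-inoculated 24 hr later and held 48 hr at 22 °C and 100% RH, then in a 22 °C growth room. Disease on sprayed leaves was then assessed.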

[3] = tested on: Uncinula necator; assay: Grape powdery mildew (UNCINE) disease control; conditions: Erysiphe necator, 24 h, High volume application, 1 Day Protectant, read-out: UNCINE 1 DP disease control
Procedure: Technical grades of materials were dissolved in acetone, which were then mixed with nine volumes of water containing 110 ppm Triton X-100. The fungicide solutions were applied onto wheat seedlings using an automated booth sprayer to run-off. All sprayed plants were allowed to air dry prior to further handling. All fungicides were evaluated using the aforementioned method for their activity vs. all target diseases. Wheat leaf blotch and brown rust activity were also evaluated using track spray applications, in which case the fungicides were formulated as EC formulations, containing 0.1% Trycol 5941 in the spray solutions. Grape seedlings (variety Carignane) were grown in soil-less Metro mix, with one plant per pot, and used in the test when approximately one month old. Plants were inoculated 24 hr after fungicide treatment by shaking spores from infected leaves over test plants. Plants were maintained in a greenhouse set at 20° C. until disease was fully developed. Fungicide formulation, application and disease assessment on the sprayed leaves followed the procedures as described in the Example A.

[4] = tested on: Puccinia triticina; Synonym: Puccinia recondite f. sp. tritici; assay: Wheat brown rust (PUCCRT) disease control on wheat seedlings; conditions: Puccinia triticina; for pest or weed control at 121.5 g/ha: low volume application, 121.5 g/H
Procedure, shortened: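 Yuma wheat grown to first fully emerged leaf was inoculated with Puccinia triticina spore suspension either before or after fungicide treatment, held overnight at 22° C. and 100% RH in darkness, then kept at 24° C. Fungicide applied by booth sprayer to run-off (acetone/water, 110 ppm Triton X-100) or as EC by track spray.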

[5] = tested on: Magnaporthe grisea; Anamorph: Pyricularia oryzae; assay: whole plant or invertebrate; conditions: 24 h, read-out: PYRIOR 1 DP disease control
[6] = tested on: Rhyncosporium secalis; assay: Barley scald (RHYNSE) disease control; conditions: 24 h, High volume application, 1 Day Protectant, read-out: RHYNSE 1 DP disease control
Procedure: Technical grades of materials were dissolved in acetone, which were then mixed with nine volumes of water containing 110 ppm Triton X-100. The fungicide solutions were applied onto wheat seedlings using an automated booth sprayer to run-off. All sprayed plants were allowed to air dry prior to further handling. All fungicides were evaluated using the aforementioned method for their activity vs. all target diseases. Wheat leaf blotch and brown rust activity were also evaluated using track spray applications, in which case the fungicides were formulated as EC formulations, containing 0.1% Trycol 5941 in the spray solutions. Barley seedlings (variety Harrington) were propagated in soil-less Metro mix, with each pot having 8 to 12 plants, and used in the test when first leaf was fully emerged. Test plants were inoculated by an aqueous spore suspension of Rhyncosporium secalis 24 hr after fungicide treatments. After inoculation the plants were kept in a dew room at 20° C. with 100% relative humidity for 48 hr. The plants were then transferred to a greenhouse set at 20° C. for disease to develop. Fungicide formulation, application and disease assessment on the sprayed leaves followed the procedures as described in the Example A.

[7] = tested on: Cercospora beticola; assay: Leaf spot of sugar beets (CERCBE) disease control; conditions: 24 h, 1 Day Protectant, high volume, read-out: Disease Control CERCBE 1 DP
Procedure: Technical grades of materials were dissolved in acetone, which were then mixed with nine volumes of water containing 110 ppm Triton X-100. The fungicide solutions were applied onto wheat seedlings using an automated booth sprayer to run-off. All sprayed plants were allowed to air dry prior to further handling. All fungicides were evaluated using the aforementioned method for their activity vs. all target diseases. Wheat leaf blotch and brown rust activity were also evaluated using track spray applications, in which case the fungicides were formulated as EC formulations, containing 0.1% Trycol 5941 in the spray solutions. Sugar beet plants (variety HH88) were grown in soil-less Metro mix and trimmed regularly to maintain a uniform plant size prior to test. Plants were inoculated with a spore suspension 24 hr after fungicide treatments. Inoculated plants were kept in a dew chamber at 22° C. for 48 hr then incubated in a greenhouse set at 24° C. under a clear plastic hood with bottom ventilation until disease symptoms were fully expressed. Fungicide formulation, application and disease assessment on the sprayed leaves followed the procedures as described in the Example A.

[8] = 24 h, 1 Day Protectant, read-out: Disease Control PHAKPA 1DP
[9] = 72 h, 3 Day Curative, read-out: Disease Control PHAKPA 3DC
[10] = 24 h, High volume application, 1 Day Protectant, read-out: PUCCRT 1DP disease control
[11] = 72 h, High volume application, 3 Day Curative, read-out: PUCCRT 3DC disease control
[12] = 24 h, Wheat Brown Rust, 1 Day Protectant, read-out: Disease Control PUCCRT 1 DP 121.5 g/H
[13] = 72 h, Wheat Brown Rust, 3 Day Curative, read-out: Disease Control PUCCRT 3 DC 121.5 g/H

SMILES	pest or weed control at 25 ppm [1, 8] [%]	pest or weed control at 25 ppm [1, 9] [%]	pest or weed control at 100 ppm [2] [%]	pest or weed control at 100 ppm [3] [%]	pest or weed control at 100 ppm [4, 10] [%]	pest or weed control at 100 ppm [4, 11] [%]	pest or weed control at 100 ppm [5] [%]	pest or weed control at 100 ppm [6] [%]	pest or weed control at 100 ppm [7] [%]	pest or weed control at 121.5 g/ha [4, 12] [%]	pest or weed control at 121.5 g/ha [4, 13] [%]	pest or weed control at 100 ppm ([4]; 24 h, Wheat Brown Rust, 1 Day Protectant, high volume application, read-out: Disease Control PUCCRT 1 DP 100 ppm) [%]	pest or weed control at 100 ppm ([4]; 72 h, Wheat Brown Rust, 3 Day Curative, high volume application, read-out: Disease Control PUCCRT 3 DC 100 ppm) [%]
COc1ccnc(C(=O)N[C@H]2CCC[C@H](Oc3ccccc3)[C@@H](OCC(C)C)[C@H](C)OC2=O)c1OCOC(C)=O [F28]	80 to 100	0 to 80	80 to 100	0 to 80	80 to 100	80 to 100	80 to 100	80 to 100	80 to 100	–	–	–	–
CCCO[C@H]1CCC[C@H](NC(=O)c2nccc(OC)c2OCOC(C)=O)C(=O)O[C@@H](C)[C@@H]1Oc1ccccc1 [F138]	80 to 100	80 to 100	80 to 100	0 to 80	80 to 100	80 to 100	80 to 100	80 to 100	80 to 100	–	–	–	–
CCCO[C@H]1CCC[C@H](NC(=O)c2nccc(OC)c2OC(C)=O)C(=O)O[C@@H](C)[C@@H]1Oc1ccccc1 [F141]	80 to 100	80 to 100	80 to 100	0 to 80	80 to 100	80 to 100	80 to 100	80 to 100	80 to 100	–	–	–	–
C=C(C)CO[C@H]1CCC[C@H](NC(=O)c2nccc(OC)c2OCOC(=O)C(C)C)C(=O)O[C@@H](C)[C@@H]1OC [F253]	0 to 80	< 0	80 to 100	0 to 80	–	–	80 to 100	0 to 80	< 0	80 to 100	80 to 100	–	–
COc1ccnc(C(=O)N[C@H]2CCC[C@H](Oc3ccccc3)[C@@H](OC(=O)C3CC3)[C@H](C)OC2=O)c1OCOC(=O)C(C)C [F241]	80 to 100	0 to 80	80 to 100	0 to 80	–	–	80 to 100	0 to 80	80 to 100	80 to 100	80 to 100	80 to 100	80 to 100
COc1ccnc(C(=O)N[C@H]2CCC[C@H](Oc3ccccc3)[C@@H](OC)[C@H](C)OC2=O)c1OCOC(C)=O [F252]	80 to 100	0 to 80	80 to 100	0 to 80	–	–	80 to 100	80 to 100	0 to 80	80 to 100	80 to 100	–	–
COc1ccnc(C(=O)N[C@H]2CCC[C@H](OCC(C)C)[C@@H](OC3CCCC3)[C@H](C)OC2=O)c1OCOC(C)=O [F39]	80 to 100	80 to 100	80 to 100	0 to 80	80 to 100	80 to 100	80 to 100	80 to 100	80 to 100	–	–	–	–
CCCO[C@H]1CCC[C@H](NC(=O)c2nccc(OC)c2OCOC(=O)C(C)C)C(=O)O[C@@H](C)[C@@H]1Oc1ccccc1 [F139]	80 to 100	80 to 100	80 to 100	0 to 80	80 to 100	80 to 100	80 to 100	80 to 100	80 to 100	–	–	–	–
COc1ccnc(C(=O)N[C@H]2CCC[C@H](Oc3ccccc3)[C@@H](OC)[C@H](C)OC2=O)c1OCOC(=O)C(C)C [F255]	80 to 100	0 to 80	80 to 100	80 to 100	–	–	80 to 100	80 to 100	0 to 80	80 to 100	80 to 100	–	–
CCCO[C@H]1CCC[C@H](NC(=O)c2nccc(OC)c2OC(=O)CCOC)C(=O)O[C@@H](C)[C@@H]1Oc1ccccc1 [F140]	80 to 100	80 to 100	80 to 100	0 to 80	80 to 100	80 to 100	80 to 100	80 to 100	80 to 100	–	–	–	–
